Paper PMC9841592 (ACS Medicinal Chemistry Letters, 2022)
Entries after “also recorded” stand apart in the source; their conditions may differ. Like-named read-outs stand apart in the source and are kept apart here. Marks after values point to notes of the source that are not given here.

Assays:
hERG [1] = molecular target: T1, hERG (Homo sapiens, UniProt Q12809); details: for hERG ion channel inhibition (in words): hERG inhibition binding assay
plasma IGF-1 [2] = assay: Plasma IGF-1 after repeated daily oral dosing in dogs; type: in vivo, dog; details: p < 0.05
GH secretion and IGF-1 = details: cited from earlier work; for effect on IGF-1 levels / effect on GHRH-stimulated GH secretion: Phase 1, healthy volunteers; for effect on IGF-1 levels: over several days
[3] = healthy human volunteers, Phase 1 study; cited from earlier work
Human SST2 = Human SST2 (Homo sapiens, UniProt P30874); type: cell-based
plasma IGF-1 [4] = assay: Plasma IGF-1 after repeated daily oral dosing in rats; type: in vivo, rat; details: male SD rats
IGF-1 = details: Phase 2, acromegaly patients switched to oral paltusotine; cited from earlier work
hERG [5] = molecular target: T1, hERG; assay: Patch-clamp hERG assay; type: cell-based

T1 sequence (Q12809 whole entry): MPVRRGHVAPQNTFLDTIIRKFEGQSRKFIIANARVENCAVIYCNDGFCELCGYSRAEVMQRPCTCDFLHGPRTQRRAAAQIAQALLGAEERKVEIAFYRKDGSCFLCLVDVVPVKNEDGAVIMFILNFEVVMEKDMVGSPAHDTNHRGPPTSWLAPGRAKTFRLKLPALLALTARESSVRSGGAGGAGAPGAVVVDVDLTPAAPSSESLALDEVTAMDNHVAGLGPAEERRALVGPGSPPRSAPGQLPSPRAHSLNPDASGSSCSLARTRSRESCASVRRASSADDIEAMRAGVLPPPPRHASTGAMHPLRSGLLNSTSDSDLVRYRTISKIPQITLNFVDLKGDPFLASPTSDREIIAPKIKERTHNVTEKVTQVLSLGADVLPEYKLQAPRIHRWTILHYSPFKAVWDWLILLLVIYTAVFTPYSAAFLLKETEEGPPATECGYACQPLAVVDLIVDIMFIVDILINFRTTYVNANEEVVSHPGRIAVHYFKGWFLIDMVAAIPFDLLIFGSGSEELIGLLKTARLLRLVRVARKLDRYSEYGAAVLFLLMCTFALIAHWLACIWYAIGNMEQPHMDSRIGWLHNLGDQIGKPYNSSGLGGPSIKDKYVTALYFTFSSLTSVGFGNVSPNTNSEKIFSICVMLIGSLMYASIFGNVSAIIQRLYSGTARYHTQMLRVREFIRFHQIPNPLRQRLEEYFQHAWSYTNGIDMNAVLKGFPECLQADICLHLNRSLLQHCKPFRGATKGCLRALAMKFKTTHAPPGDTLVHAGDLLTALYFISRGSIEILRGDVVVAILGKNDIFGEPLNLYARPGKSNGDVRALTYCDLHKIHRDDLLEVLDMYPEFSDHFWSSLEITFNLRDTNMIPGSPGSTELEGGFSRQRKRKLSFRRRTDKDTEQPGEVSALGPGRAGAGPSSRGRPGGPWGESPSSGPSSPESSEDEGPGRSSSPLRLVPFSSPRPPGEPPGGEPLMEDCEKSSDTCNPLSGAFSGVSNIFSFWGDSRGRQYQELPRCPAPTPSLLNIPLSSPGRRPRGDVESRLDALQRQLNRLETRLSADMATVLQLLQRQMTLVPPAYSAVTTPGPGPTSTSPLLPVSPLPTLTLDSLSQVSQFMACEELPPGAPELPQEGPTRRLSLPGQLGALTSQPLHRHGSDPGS
Sequence of Human SST2 (P30874 whole entry): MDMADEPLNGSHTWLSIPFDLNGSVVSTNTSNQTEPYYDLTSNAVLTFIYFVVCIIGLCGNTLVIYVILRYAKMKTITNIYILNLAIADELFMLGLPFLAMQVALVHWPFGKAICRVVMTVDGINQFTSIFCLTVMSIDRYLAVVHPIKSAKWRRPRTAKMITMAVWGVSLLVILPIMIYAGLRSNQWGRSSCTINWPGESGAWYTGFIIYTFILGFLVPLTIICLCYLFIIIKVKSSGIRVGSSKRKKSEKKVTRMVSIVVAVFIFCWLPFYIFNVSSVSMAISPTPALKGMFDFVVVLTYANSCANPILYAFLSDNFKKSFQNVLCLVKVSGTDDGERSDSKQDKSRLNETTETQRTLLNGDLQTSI

selectivity for SST2 over other SST receptor subtypes (Human SST2) | SMILES | hERG ion channel inhibition (in words) (hERG [1]) | suppression of plasma IGF-1 relative to vehicle, day 1 (plasma IGF-1 [2]; male and female beagle dogs, 150 mg/kg/day po) | suppression of plasma IGF-1 compared to vehicle, day 7 (plasma IGF-1 [2]; male and female beagle dogs, 6, 30 and 150 mg/kg/day po for 7 days) | effect on IGF-1 levels (GH secretion and IGF-1; listed as Paltusotine) | effect on IGF-1 levels (GH secretion and IGF-1; listed as paltusotine) | effect on GHRH-stimulated GH secretion (GH secretion and IGF-1; listed as Paltusotine) | effect on GHRH-stimulated GH secretion (GH secretion and IGF-1; listed as paltusotine) | tolerability (GH secretion and IGF-1; double-blind placebo-controlled Phase 1 trial, healthy volunteers) | oral bioavailability [3] | suppression of plasma IGF-1 relative to vehicle (plasma IGF-1 [4]; 10 mg/kg/day po for 14 days, days 2, 10 and 14, p < 0.05) | suppression of plasma IGF-1 relative to vehicle (plasma IGF-1 [4]; 30 mg/kg/day po for 14 days, all days measured, p < 0.05) | effect on IGF-1 levels after switch from injected depots (IGF-1) | IC50 (hERG [5]) | hERG pIC50±SEM (hERG [1]; hERG binding assay)
 | N#Cc1cc(F)cc(-c2ccc3ncc(-c4cc(F)cc(F)c4)c(N4CCC(N)CC4)c3c2)c1O [Compound 24] | weak inhibitors |  |  |  |  |  |  |  |  |  |  |  |  | 
> 1000 fold | N#Cc1cccc(-c2ccc3ncc(-c4cc(F)cc(F)c4)c(N4CCC(N)CC4)c3c2)c1O [Compound 22, 3-[4-(4-aminopiperidin-1-yl)-3-(3,5-difluorophenyl)quinolin-6-yl]-2-hydroxybenzonitrile] | weak inhibitors; also recorded: no direct inhibition | significantly suppressed | significantly suppressed | dose-dependent reduction | lowered IGF-1 levels | dose-dependent reduction | acutely suppressed | good tolerability | ~70% | significantly suppressed | significantly suppressed | maintain IGF-1 levels | 9.9 µM | <5 ^c
 | N#Cc1cccc(-c2ccc3ncc(-c4cccc(F)c4)c(N4CCC(N)CC4)c3c2)c1O [Compound 25] | weak inhibitors |  |  |  |  |  |  |  |  |  |  |  |  | 
